# Data published in patent US20100111838A1, “BRAIN-LOCALIZING POLYPEPTIDES COMPRISING A MULTIVALENT BINDING MOIETY AND IMPROVED METABOLIC STABILITY” (Proteus Sciences Co., Ltd, priority 2007, published 2010).
# Where a SMILES comes first, the peptide text is derived from it. The star is where a group is joined. 5FAM = O=C1OC2(c3ccc(O)cc3Oc3cc(O)ccc32)c2ccc(C(=O)*)cc21
# Experiment: In vitro metabolism test of fluorescein-labeled peptides in liver extract solution (HPLC)
# Format: in vitro ADME
# Details: mouse liver extract solution, 37° C.
# Description: To compare the degree of improved stability observed in [C]K004K, an experiment system that uses a fluorescent pigment as a tracer instead of an isotope labeling for in vitro evaluation using a mouse liver homogenate was produced.
# Add two parts of Hanks' solution to one part of mouse liver, and homogenize ↓ Centrifuge and collect supernatant ↓ Add five parts of Hanks' solution (liver extract solution) ↓ Add 5 μL of peptide to 245 μL of liver extract solution ↓
# ↓ Take 50 μL of sample 0, 5, 30, 60, and 120 minutes after incubation ↓ Add 200 μL, of 70% ethanol (pre-cooled at −30° C.) and then vortex ↓ Add 500 μL of chloroform (pre-cooled at −30° C.) and then vigorously vortex ↓ Centrifuge and collect supernatant ↓ Add an equivalent amount of DMF and then vortex ↓ Centrifuge and collect supernatant ↓ HPLC analysis using Co-sense
# [C](Flu)-C004C: A peptide cyclized by adding C to both ends of the 004 sequence and forming a disulfide bond between them was labeled with fluorescein at its N-terminus. [C](Flu)-K004C: A peptide cyclized by adding K to the N terminus and C to the C terminus of the 004 sequence and forming a peptide bond between the N- and C-termini was labeled with fluorescein at its N terminus. [C](Flu)-K004K: A peptide cyclized by adding K to both ends of the 004 sequence and forming a peptide bond between the N- and C-termini was labeled with fluorescein at its N terminus. […]
structure (smiles),measurement,value
CC(C)C[C@@H]1NC(=O)[C@H](Cc2c[nH]cn2)NC(=O)[C@H](CCCNC(=N)N)NC(=O)[C@H](C(C)C)NC(=O)[C@H](C(C)C)NC(=O)[C@H](CCCCNC(=O)c2ccc3c(c2)C(=O)OC32c3ccc(O)cc3Oc3cc(O)ccc32)NC(=O)[C@H](CCCCN)NC(=O)[C@H](CCC(N)=O)NC(=O)[C@H](CCC(N)=O)NC1=O [[C](Flu)-K004K] (cyclo(K(5FAM)VVRHLQQK)),resistance to degradation in liver extract solution (comparison),strongest resistance to degradation
